Measurements reported in patent US10532995B2, “Substituted pyrazole compounds as serine protease inhibitors” (VERSEON CORPORATION, priority 2015, dated 2020).
Structures can show the parent of a compound that is named as a salt.

What was measured:
Human thrombin = target: T1, Human thrombin (Homo sapiens, UniProt P00734); test: Thrombin protease activity inhibition, chromogenic substrate S-2238; type: biochemical; conditions: 3 nM thrombin, 125 μM S-2238, 10 min pre-incubation, RT
T1 construct: purchased Haematologic Technologies Inc
Procedure, shortened: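 Ten-point, three-fold serial dilutions of compound tested against 3 nM enzyme at RT in Tris buffer (0.05 M, pH 7.4) with 0.015 M NaCl and 0.01% PEG-8000.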

malignant breast tumors = conditions: cited from earlier work

| SMILES | IC50 (Human thrombin) [µM] | further results |
| --- | --- | --- |
| CS(=O)(=O)N1CCNC(c2cc(NCc3ccc(Cl)s3)[nH]n2)C1 (centres unmarked) [Entry 179, N-[(5-chlorothiophen-2-yl)methyl]-3-(4-methanesulfonylpiperazin-2-yl)-1H-pyrazol-5-amine] | > 100 |  |
| FC(F)(F)C(c1ccccn1)N1CCC(c2cc(NCc3ccc(Cl)s3)[nH]n2)CC1 (centres unmarked) [Entry 221, N-[(5-chlorothiophen-2-yl)methyl]-3-1-[2,2,2-trifluoro-1-(pyridin-2-yl)ethyl]piperidin-4-yl-1H-pyrazol-5-amine] | > 100 |  |
| O=C(C1CCCC1)n1nc(C2CCNCC2)cc1NCc1ccc(Cl)s1 [Entry 170, N-[(5-chlorothiophen-2-yl)methyl]-1-cyclopentanecarbonyl-3-(piperidin-4-yl)-1H-pyrazol-5-amine hydrochloride] | > 100 |  |
| Clc1ccc(CNc2cc(C3CCN(Cc4cnn[nH]4)CC3)n[nH]2)s1 [Entry 196, N-[(5-chlorothiophen-2-yl)methyl]-3-[1-(1H-1,2,3-triazol-5-ylmethyl)piperidin-4-yl]-1H-pyrazol-5-amine] | > 100 |  |
| CCCCCCOC(=O)NC(=N)c1ccc(NCc2nc3cc(C(=O)N(CCC(=O)OCC)c4ccccn4)ccc3n2C)cc1 [dabigatran etexilate] |  | reduction in tumor volume (malignant breast tumors; at 4 weeks, treated mice): 50%; weight loss in treated mice (malignant breast tumors; at 4 weeks): no weight loss; reduction of tumor cells in the blood and liver micrometastases (malignant breast tumors; treated mice): 50-60% |

Further lines, with some results ahead:

| IC50 (Human thrombin) [µM] | SMILES | further results |
| --- | --- | --- |
| < 0.1 | CC(C)(C)OC(=O)N1CCC(C)(c2cc(NCc3ccc(Cl)s3)n(C(=O)C3(C)CCOCC3)n2)CC1 [Entry 299, tert-butyl 4-(5-[(5-chlorothiophen-2-yl)methyl]amino-1-(4-methyloxane-4-carbonyl)-1H-pyrazol-3-yl)-4-methylpiperidine-1-carboxylate] |  |
| < 0.1 | CC(C)(C)C(=O)n1nc(C2CCN(C(=O)N3CCOCC3)CC2)c(C#N)c1NCc1ccc(Cl)s1 [Entry 140, 5-[(5-chlorothiophen-2-yl)methyl]amino-1-(2,2-dimethylpropanoyl)-3-[1-(morpholine-4-carbonyl)piperidin-4-yl]-1H-pyrazole-4-carbonitrile] |  |
| 1 to 10 | Clc1ccc(CNc2cc(C3CCN(Cc4ccccn4)CC3)n[nH]2)s1 [Entry 210, N-[(5-chlorothiophen-2-yl)methyl]-3-[1-(pyridin-2-ylmethyl)piperidin-4-yl]-1H-pyrazol-5-amine] |  |
| 1 to 10 | Clc1ccc(CNc2cc(C3CCN(Cc4c[nH]cn4)CC3)n[nH]2)s1 [Entry 197, N-[(5-chlorothiophen-2-yl)methyl]-3-[1-(1H-imidazol-4-ylmethyl)piperidin-4-yl]-1H-pyrazol-5-amine] |  |
